The source made the active and inactive calls. How the calls were made is not given here.
Test system: CCRIS mutagenicity, Ames/micronucleus/aberration tests
Experiment: CCRIS mutagenicity studies
[1] = Test System: AMES SALMONELLA TYPHIMURIUM, Strain/Indicator: TA1535, Metabolic Activation: NONE, Method: STANDARD PLATE
[2] = Test System: AMES SALMONELLA TYPHIMURIUM, Strain/Indicator: TA98, Metabolic Activation: NONE, Method: STANDARD PLATE
[3] = Test System: AMES SALMONELLA TYPHIMURIUM, Strain/Indicator: TA98, Metabolic Activation: RAT, LIVER, S-9, AROCLOR 1254, Method: STANDARD PLATE
[4] = Test System: AMES SALMONELLA TYPHIMURIUM, Strain/Indicator: TA100, Metabolic Activation: NONE, Method: STANDARD PLATE
[5] = Test System: AMES SALMONELLA TYPHIMURIUM, Strain/Indicator: TA100, Metabolic Activation: RAT, LIVER, S-9, AROCLOR 1254, Method: STANDARD PLATE
[6] = Test System: AMES SALMONELLA TYPHIMURIUM, Strain/Indicator: TA1535, Metabolic Activation: RAT, LIVER, S-9, AROCLOR 1254, Method: STANDARD PLATE
[7] = Test System: AMES SALMONELLA TYPHIMURIUM, Strain/Indicator: TA1537, Metabolic Activation: NONE, Method: STANDARD PLATE
[8] = Test System: AMES SALMONELLA TYPHIMURIUM, Strain/Indicator: TA1537, Metabolic Activation: RAT, LIVER, S-9, AROCLOR 1254, Method: STANDARD PLATE
[9] = Test System: AMES SALMONELLA TYPHIMURIUM, Strain/Indicator: TA1538, Metabolic Activation: NONE, Method: STANDARD PLATE
[10] = Test System: AMES SALMONELLA TYPHIMURIUM, Strain/Indicator: TA1538, Metabolic Activation: RAT, LIVER, S-9, AROCLOR 1254, Method: STANDARD PLATE

With `CCN(N=O)C(=O)N(C)C` the mutagenic call [1] was “active; positive” and the mutagenic call (Test System: AMES SALMONELLA TYPHIMURIUM, Strain/Indicator: TA1535, Metabolic Activation: RAT, LIVER, S-9, BETA-NAPHTHOFLAVONE AND PHENOBARBITAL, Method: STANDARD PLATE) was “active; positive”.
With `Oc1ccc([C@H]2COc3cc(O)ccc3C2)cc1` the mutagenic call (End Point: IN VITRO MICRONUCLEUS, Test System: CHINESE HAMSTER V79 CELLS, Metabolic Activation: NONE) was “active; positive”.
For `CC1CC(C(C)C(C)(C)O)O[C@H]2C[C@@]3(C)[C@@H]4CC[C@H]5C(C)(C)C(=O)CC[C@@]56C[C@@]46CC[C@]3(C)[C@@H]12` (stereo not given in full), the mutagenic call (End Point: IN VITRO MICRONUCLEUS, Test System: HUMAN PERIPHERAL LYMPHOCYTES, Metabolic Activation: NONE) was “inactive; negative”.
With `CO/N=C(\C(=O)N[C@@H]1C(=O)N2C(C(=O)O)=C(CSC(=O)c3ccco3)CS[C@H]12)c1csc(N)n1` the mutagenic call [2] was “inactive; negative”, the mutagenic call [3] was “inactive; negative” and the mutagenic call [4] was “inactive; negative”. The mutagenic call [5] was “inactive; negative”, the mutagenic call [1] was “inactive; negative” and the mutagenic call [6] was “inactive; negative”. The mutagenic call [7] was “inactive; negative”, the mutagenic call [8] was “inactive; negative” and the mutagenic call [9] was “inactive; negative”. For the same compound, the mutagenic call [10] was “inactive; negative”, the mutagenic call (Test System: CHINESE HAMSTER V-79, Strain/Indicator: V-79 (HPRT)/6-THIOGUANINE, Metabolic Activation: NONE) was “inactive; negative” and the mutagenic call (Test System: CHINESE HAMSTER V-79, Strain/Indicator: V-79 (HPRT)/6-THIOGUANINE, Metabolic Activation: RAT, LIVER, S-9, AROCLOR 1254) was “inactive; negative”. The mutagenic call (Test System: UDS RAT HEPATOCYTES, Strain/Indicator: THY INCORP, Metabolic Activation: NONE, Method: IN VIVO-IN VITRO) was “inactive; negative”.
For `CCC(=O)CN(CC(=O)CC)N=O`, the mutagenic call (Test System: CHINESE HAMSTER V-79, Strain/Indicator: V-79/OUABAIN, Metabolic Activation: HAMSTER, HEPATOCYTES, Method: CELL-MEDIATED) was “active; positive”.
With `C=CC(=O)OCC(C)C` the mutagenic call (Test System: AMES SALMONELLA TYPHIMURIUM, Strain/Indicator: TA98, Metabolic Activation: HAMSTER, LIVER, S-9, AROCLOR 1254 (10%), Method: PREINCUBATION) was “inactive; negative”, the mutagenic call (Test System: AMES SALMONELLA TYPHIMURIUM, Strain/Indicator: TA98, Metabolic Activation: NONE, Method: PREINCUBATION) was “inactive; negative” and the mutagenic call (Test System: AMES SALMONELLA TYPHIMURIUM, Strain/Indicator: TA98, Metabolic Activation: RAT, LIVER, S-9, AROCLOR 1254 (10%), Method: PREINCUBATION) was “inactive; negative”. The mutagenic call (Test System: AMES SALMONELLA TYPHIMURIUM, Strain/Indicator: TA100, Metabolic Activation: HAMSTER, LIVER, S-9, AROCLOR 1254 (10%), Method: PREINCUBATION) was “inactive; negative”, the mutagenic call (Test System: AMES SALMONELLA TYPHIMURIUM, Strain/Indicator: TA100, Metabolic Activation: NONE, Method: PREINCUBATION) was “inactive; negative” and the mutagenic call (Test System: AMES SALMONELLA TYPHIMURIUM, Strain/Indicator: TA100, Metabolic Activation: RAT, LIVER, S-9, AROCLOR 1254 (10%), Method: PREINCUBATION) was “inactive; negative”. For the same compound, the mutagenic call (Test System: AMES SALMONELLA TYPHIMURIUM, Strain/Indicator: TA1535, Metabolic Activation: HAMSTER, LIVER, S-9, AROCLOR 1254 (10%), Method: PREINCUBATION) was “inactive; negative”, the mutagenic call (Test System: AMES SALMONELLA TYPHIMURIUM, Strain/Indicator: TA1535, Metabolic Activation: NONE, Method: PREINCUBATION) was “inactive; negative” and the mutagenic call (Test System: AMES SALMONELLA TYPHIMURIUM, Strain/Indicator: TA1535, Metabolic Activation: RAT, LIVER, S-9, AROCLOR 1254 (10%), Method: PREINCUBATION) was “inactive; negative”. The mutagenic call (Test System: AMES SALMONELLA TYPHIMURIUM, Strain/Indicator: TA1537, Metabolic Activation: HAMSTER, LIVER, S-9, AROCLOR 1254 (10%), Method: PREINCUBATION) was “inactive; negative”, the mutagenic call (Test System: AMES SALMONELLA TYPHIMURIUM, Strain/Indicator: TA1537, Metabolic Activation: NONE, Method: PREINCUBATION) was “inactive; negative” and the mutagenic call (Test System: AMES SALMONELLA TYPHIMURIUM, Strain/Indicator: TA1537, Metabolic Activation: RAT, LIVER, S-9, AROCLOR 1254 (10%), Method: PREINCUBATION) was “inactive; negative”.
In the case of `CC(C)=C/C(C)=N/Nc1nncc2ccccc12`, the mutagenic call [4] is reported as “active; positive”, the mutagenic call (Test System: AMES SALMONELLA TYPHIMURIUM, Strain/Indicator: TA100, Metabolic Activation: RAT, LIVER, S-9, PHENOBARBITAL, Method: STANDARD PLATE) is reported as “active; positive” and the mutagenic call (Test System: UDS RAT HEPATOCYTES, Strain/Indicator: THY INCORP, Metabolic Activation: NONE, Method: AUTORADIOGRAPHY) is reported as “inactive; negative”.
With `Oc1cnc2ccccc2c1` the mutagenic call [4] was “inactive; negative” and the mutagenic call (Test System: AMES SALMONELLA TYPHIMURIUM, Strain/Indicator: TA100, Metabolic Activation: RAT, LIVER, S-9, AROCLOR 1254 (10% OR 20%), Method: STANDARD PLATE) was “inactive; negative”.
In the case of `C=CC(=O)OCCCCOC(=O)C=C`, the mutagenic call [2] is reported as “inactive; negative”, the mutagenic call [3] is reported as “inactive; negative” and the mutagenic call (Test System: AMES SALMONELLA TYPHIMURIUM, Strain/Indicator: TA98, Metabolic Activation: RAT, LIVER, S-9, SODIUM PHENOBARBITAL, Method: STANDARD PLATE) is reported as “inactive; negative”. The mutagenic call [4] was “inactive; negative”, the mutagenic call [5] was “inactive; negative” and the mutagenic call (Test System: AMES SALMONELLA TYPHIMURIUM, Strain/Indicator: TA100, Metabolic Activation: RAT, LIVER, S-9, SODIUM PHENOBARBITAL, Method: STANDARD PLATE) was “inactive; negative”. The mutagenic call [1] was “inactive; negative”, the mutagenic call [6] was “inactive; negative” and the mutagenic call (Test System: AMES SALMONELLA TYPHIMURIUM, Strain/Indicator: TA1535, Metabolic Activation: RAT, LIVER, S-9, SODIUM PHENOBARBITAL, Method: STANDARD PLATE) was “inactive; negative”. For the same compound, the mutagenic call [7] was “inactive; negative”, the mutagenic call [8] was “inactive; negative” and the mutagenic call (Test System: AMES SALMONELLA TYPHIMURIUM, Strain/Indicator: TA1537, Metabolic Activation: RAT, LIVER, S-9, SODIUM PHENOBARBITAL, Method: STANDARD PLATE) was “inactive; negative”. The mutagenic call [9] was “inactive; negative”, the mutagenic call [10] was “inactive; negative” and the mutagenic call (Test System: AMES SALMONELLA TYPHIMURIUM, Strain/Indicator: TA1538, Metabolic Activation: RAT, LIVER, S-9, SODIUM PHENOBARBITAL, Method: STANDARD PLATE) was “inactive; negative”.
